[ ]: non-standard residue; d: D form. Aib = CC(C)(N)C(=O)O
Assays:
primary human T-cells = assay: Cytokine secretion on protein level in activated primary human T-cells (13-plex FACS / Luminex, supernatant); format: cell-based; details: for IL-1 cytokine concentration / IL-2 cytokine concentration / IL-4 cytokine concentration / IL-5 cytokine concentration / IL-6 cytokine concentration / IL-9 cytokine concentration / IL-10 cytokine concentration / IL-12p70 cytokine concentration / IL-13 cytokine concentration / IL-17 cytokine concentration / IL-22 cytokine concentration / TNF-α cytokine concentration / INF-α cytokine concentration: substance 10^−9M
How it was run: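 First, T-cells are isolated from healthy donors' blood. Next, they and HaCaT keratinocytes are activated for 48 h with PMA/Ionomycin or IFN-γ in the presence of tripeptides. Finally, secreted cytokines are quantified in supernatants by 13-plex FACS at 48 and 72 h.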

C57BL/6 mice = assay: Vasculitis model in mice (LPS / TNF-α intradermal); format: in vivo; details: s.c.
Method: C57BL/6 mice receive an intradermal injection of LPS. On the following day vasculitis is induced by intradermal injection of TNF-α. In addition Evan's blue is injected. 24 hours following the injection of TNF-α mice are scarified. Ear thickness is measured and the degree of vasculitis is assessed by counting petechiae. The content of Evan's blue in the ear tissue is a marker for vascular permeability. Ears are analyzed by histology, FACS and RT-qPCR. […] In histology a reduced inflammatory infiltrate was seen.

Balb/c mice = assay: Imiquimod-induced psoriasis in mice; format: in vivo; details: i.v.
Method: Psoriasis in Balb/c mice is induced by daily application of topical Imiquimod for 8 days. Animal are treated with the test items (topical or systemically). On day 9 the skin phenotype is characterized using a clinical score system (0=normal mouse skin; 1=mild reddening; 2=erythema; 3=erythema, swelling; 4=erythema, swelling, scaling; 5=erythema, swelling, scaling, (bloody) lesions). Skin is analyzed histologically. Lymph nodes are analyzed by flow cytometry and RT-qPCR. mRNA expression in lesional skin is analyzed by RT-qPCR. Cytokine concentrations in the serum are assessed using the Luminex technology.

[1] = primary human T-cells stimulated with IFN-γ
[2] = primary human T-cells stimulated with PBS
[3] = primary human T-cells stimulated with PMA/Ionomycin

With H-Phe-Pro-[Aib]-OH [Example 13] the “secretion / expression of pro-inflammatory cytokines (supernatant)” value (primary human T-cells; activated primary human T-cells) was “decreased expression”, the “immunomodulatory activity relative to MMF” value (primary human T-cells; cells activated with PMA/Ionomycin and IFN-γ, protein and gene level) was “higher” and the IL-1 cytokine concentration (primary human T-cells; [1]) was 162.75 pg/mL. For the same substance, the IL-2 cytokine concentration (primary human T-cells; [1]) was 187.16 pg/mL, the IL-4 cytokine concentration (primary human T-cells; [1]) was 0 pg/mL and the IL-5 cytokine concentration (primary human T-cells; [1]) was 15.32 pg/mL. For the same substance, the IL-6 cytokine concentration (primary human T-cells; [1]) was 60.51 pg/mL, the IL-9 cytokine concentration (primary human T-cells; [1]) was 0 pg/mL and the IL-10 cytokine concentration (primary human T-cells; [1]) was 0 pg/mL. For the same substance, the IL-12p70 cytokine concentration (primary human T-cells; [1]) was 0 pg/mL, the IL-13 cytokine concentration (primary human T-cells; [1]) was 0 pg/mL and the IL-17 cytokine concentration (primary human T-cells; [1]) was 81.59 pg/mL. It also gave an IL-22 cytokine concentration (primary human T-cells; [1]) of 0 pg/mL, a TNF-α cytokine concentration (primary human T-cells; [1]) of 0 pg/mL and an IL-1 cytokine concentration (primary human T-cells; [2]) of 0 pg/mL. For the same substance, the IL-2 cytokine concentration (primary human T-cells; [2]) was 115.73 pg/mL, the IL-4 cytokine concentration (primary human T-cells; [2]) was 73.19 pg/mL and the IL-5 cytokine concentration (primary human T-cells; [2]) was 0 pg/mL. For the same substance, the IL-6 cytokine concentration (primary human T-cells; [2]) was 113.86 pg/mL, the IL-9 cytokine concentration (primary human T-cells; [2]) was 10.84 pg/mL and the IL-10 cytokine concentration (primary human T-cells; [2]) was 147.54 pg/mL. For the same substance, the IL-12p70 cytokine concentration (primary human T-cells; [2]) was 0 pg/mL, the IL-13 cytokine concentration (primary human T-cells; [2]) was 0 pg/mL and the IL-17 cytokine concentration (primary human T-cells; [2]) was 65.17 pg/mL. For the same substance, the IL-22 cytokine concentration (primary human T-cells; [2]) was 0 pg/mL, the INF-α cytokine concentration (primary human T-cells; [2]) was 0 pg/mL and the TNF-α cytokine concentration (primary human T-cells; [2]) was 50.36 pg/mL. For the same substance, the IL-1 cytokine concentration (primary human T-cells; [3]) was 558.46 pg/mL, the IL-2 cytokine concentration (primary human T-cells; [3]) was 2092.22 pg/mL and the IL-4 cytokine concentration (primary human T-cells; [3]) was 0 pg/mL. It also gave an IL-5 cytokine concentration (primary human T-cells; [3]) of 354.06 pg/mL, an IL-6 cytokine concentration (primary human T-cells; [3]) of 1185.87 pg/mL and an IL-9 cytokine concentration (primary human T-cells; [3]) of 248.66 pg/mL. The IL-10 cytokine concentration (primary human T-cells; [3]) was 872.88 pg/mL, the IL-12p70 cytokine concentration (primary human T-cells; [3]) was 0 pg/mL and the IL-13 cytokine concentration (primary human T-cells; [3]) was 1081.09 pg/mL. The IL-17 cytokine concentration (primary human T-cells; [3]) was 1069.51 pg/mL, the IL-22 cytokine concentration (primary human T-cells; [3]) was 0 pg/mL and the INF-α cytokine concentration (primary human T-cells; [3]) was 7456.27 pg/mL. For the same substance, the TNF-α cytokine concentration (primary human T-cells; [3]) was 2706.11 pg/mL, the ear thickness (C57BL/6 mice) was “reduction” and the “inflammatory infiltrate in histology” value (C57BL/6 mice) was “reduced”. The number of petechiae (C57BL/6 mice) was “reduced number”, the “concentrations of TNF-α and IL-17 in the serum” value (Balb/c mice) was “reduced” and the “mRNA expression of IL-17, IFN-γ, IL-23, IL-36 and IL-22 in lesional skin” value (Balb/c mice) was “reduced”. The “size of the rete ridges” value (Balb/c mice; compared to vehicle control) was “decreased” and the clinical score (Balb/c mice; day 9) was “reduced”.

Source: patent US10954269B2, “Anti-inflammatory tripeptides” (Dr. August Wolff Gmbh & Co. KG Arzneimittel, priority 2013, dated 2021)
